The record followed here is ChEMBL document CHEMBL1145876, “New arylpiperazine derivatives with high affinity for alpha1A, D2 and 5-HT2A receptors” (Bioorg Med Chem Lett, 2003).

In assay [1] the target is 5-hydroxytryptamine receptor 2A (Rattus norvegicus, UniProt P14842). Nature of the assay: Binding affinity towards 5-hydroxytryptamine 2A receptor using [3H]ketanserin.
In another assay the target is D(2) dopamine receptor (Rattus norvegicus, UniProt P61169). Kind of assay: Binding affinity towards Dopamine receptor D2 in rat […] using [3H]spiperone. The class given is tissue-based.
Sequence of D(2) dopamine receptor (P61169 whole entry): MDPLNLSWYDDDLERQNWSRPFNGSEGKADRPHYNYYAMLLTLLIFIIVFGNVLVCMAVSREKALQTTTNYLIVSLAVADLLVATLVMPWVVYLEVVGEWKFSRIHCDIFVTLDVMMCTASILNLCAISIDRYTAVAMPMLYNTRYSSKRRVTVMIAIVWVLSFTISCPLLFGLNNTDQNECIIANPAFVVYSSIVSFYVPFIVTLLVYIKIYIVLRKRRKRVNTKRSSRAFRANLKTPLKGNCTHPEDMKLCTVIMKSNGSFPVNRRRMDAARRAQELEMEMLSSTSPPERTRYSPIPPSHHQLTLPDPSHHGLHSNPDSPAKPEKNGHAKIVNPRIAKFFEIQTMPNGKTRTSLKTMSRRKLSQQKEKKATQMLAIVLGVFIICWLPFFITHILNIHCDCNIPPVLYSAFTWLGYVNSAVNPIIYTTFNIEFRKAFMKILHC

Sequence of 5-hydroxytryptamine receptor 2A (P14842 whole entry): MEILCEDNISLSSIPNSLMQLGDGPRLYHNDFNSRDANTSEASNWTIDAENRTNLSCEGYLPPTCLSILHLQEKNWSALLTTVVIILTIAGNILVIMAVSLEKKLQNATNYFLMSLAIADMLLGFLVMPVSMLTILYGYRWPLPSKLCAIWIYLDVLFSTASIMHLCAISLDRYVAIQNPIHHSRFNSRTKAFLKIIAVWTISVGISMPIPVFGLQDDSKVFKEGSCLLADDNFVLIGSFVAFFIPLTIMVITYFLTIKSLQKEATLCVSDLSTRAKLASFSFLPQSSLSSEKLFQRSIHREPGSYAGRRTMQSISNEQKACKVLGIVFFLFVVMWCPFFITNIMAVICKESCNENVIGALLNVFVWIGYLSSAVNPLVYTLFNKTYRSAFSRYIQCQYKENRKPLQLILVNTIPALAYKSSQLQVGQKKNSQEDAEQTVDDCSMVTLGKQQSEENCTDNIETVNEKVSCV

Consider `COc1cc(=O)oc2cc(OCCCN3CCN(c4ncccn4)CC3)ccc12`, for which the results for the Ki (in assay [1]; on D(2) dopamine receptor) were 138 nM and 47.9 nM, respectively.

For `COc1cc(=O)oc2cc(OCCCN3CCN(c4ccccc4)CC3)ccc12`, the Ki was 1950 nM in assay [1] and 562 nM at D(2) dopamine receptor.

Take `Cc1cc(=O)oc2cc(OCCCN3CCN(c4ccccn4)CC3)ccc12`: the Ki is 1070 nM in assay [1] and 81.3 nM at D(2) dopamine receptor.

As for `Cc1cc(=O)oc2cc(OCCCN3CCN(c4ncccn4)CC3)ccc12`, the Ki is 2340 nM in assay [1] and 324 nM at D(2) dopamine receptor.

For `COc1ccccc1N1CCN(CCCOc2ccc3c(C)cc(=O)oc3c2)CC1`, the Ki in assay [1] is 174 nM; at D(2) dopamine receptor, 11.7 nM.

As to `COc1cc(=O)oc2cc(OCCCN3CCN(c4ccccn4)CC3)ccc12`, the Ki was 537 nM in assay [1] and 129 nM on D(2) dopamine receptor.

For `Cc1cc(=O)oc2cc(OCCCN3CCN(c4ccccc4)CC3)ccc12`, the Ki was 933 nM in assay [1] and 45.7 nM on D(2) dopamine receptor.

Turning to `COc1ccccc1N1CCN(CCCOc2ccc3c(OC)cc(=O)oc3c2)CC1`, the Ki in assay [1] was 3090 nM; on D(2) dopamine receptor it was 17.8 nM.
